Experimental data from patent US20240034743A9, “TRICYCLIC COMPOUNDS AS EGFR INHIBITORS” (QILU PHARMACEUTICAL CO., LTD., priority 2020, published 2024).
pIC50: −log10 of the molar value. Where two headings read alike, the source gives them in different places.

Experiments:
A431 cells (EGFR WT) = experiment: A431 cell proliferation inhibition assay (CellTiter-Glo); assay type: cell-based; settings: Homo sapiens; for pIC50: A-431, cell proliferation, 72 h, CellTiter-Glo, read-out: A431 EGFR WT IC50; for IC50: A-431, 72 h, read-out: A431 EGFR WT IC50(nM)
Experimental: A431 Cell Proliferation Inhibition Assay
In the assay, the inhibition effect of the compounds on the proliferation of A431 cells was tested by adopting a CellTiter-Glo method, and the concentration IC50 of the compound for inhibiting half maximal growth of cells was obtained.
A431 cells, purchased from ATCC.
DMEM medium, fetal bovine serum (FBS), and Penicillin-Streptomycin, purchased from GIBCO.
(§1) Brigatinib, purchased from Selleck.
(§2) CellTiter-Glo reagent, purchased from Promega.
1) A431 cells were seeded in a 384-well plate at a density of 800 cells/well with 30 μL/well, and the plate was cultured in a cell incubator for 24 h (37° C., 5% CO2).
(§3) 2) Day 0: […] of gradiently-diluted compounds to be tested with a final concentration of DMSO of 0.1% was added to plate using Echo, and the plate was incubated in a cell incubator for 72 h (37° C., 5% CO2). […] of DMSO was added into each well in blank control group.
(§4) 3) Day 3: 30 μL Cell Titer-Glo reagent was added to each well, and the plate was in the dark under room temperature for 30 min.
(§5) 4) The chemiluminescent signal was detected by an Envision plate reader (PerkinElmer).
(§6) 5) Data analysis was performed using GraphPad Prism software to give the IC50 for compounds.

[1] = test system: Ba/F3_L858R/T790M/C797S cells; experiment: Ba/F3_L858R/T790M/C797S cell proliferation inhibition assay (CellTiter-Glo); assay type: cell-based; settings: Mus musculus; for pIC50: BaF3, cell proliferation, 72 h, CellTiter-Glo, read-out: Ba/F3 (L858R/T790M/C797S) IC50; for IC50: BaF3, 72 h, read-out: Ba/F3 (L858R/T790M/C797S) IC50(nM)
Experimental: Ba/F3_L858R/T790M/C797S Cell Proliferation Inhibition Assay
In the assay, the inhibition effect of the compounds on the proliferation of Ba/F3_L858R/T790M/C797S cells was tested by adopting a CellTiter-Glo method, and the concentration IC50 of the compound for inhibiting half maximal growth of cells was obtained.
Ba/F3_L858R/T790M/C797S cells were constructed by Pharmaron Beijing Co., Ltd.
1640 medium, fetal bovine serum (FBS), Penicillin-Streptomyces, and GlutaMAX-I Supplement, purchased from GIBCO.
as §1, §2
1) Ba/F3_L858R/T790M/C797S cells were seeded in a 384-well plate at a density of 700 cells/well with 30 μL/well.
as §3, §4, §5, §6

[2] = test system: Ba/F3_Del19/T790M/C797S cells; experiment: Ba/F3_Del19/T790M/C797S cell proliferation inhibition assay (CellTiter-Glo); assay type: cell-based; settings: Mus musculus; for pIC50: BaF3, cell proliferation, 72 h, CellTiter-Glo, read-out: Ba/F3 (Del19/T790M/C797S) IC50; for IC50: BaF3, 72 h, read-out: Ba/F3 (Del19/T790M/C797S) IC50(nM)
Experimental: Ba/F3_Del19/T790M/C797S Cell Proliferation Inhibition Assay
In the assay, the inhibition effect of the compounds on the proliferation of Ba/F3_Del19/T790M/C797S cells was tested by adopting a CellTiter-Glo method, and the concentration IC50 of the compound for inhibiting half maximal growth of cells was obtained.
Ba/F3_Del19/T790M/C797S, purchased from Kyinno Biotechnology Co., Ltd. 1640 medium, fetal bovine serum (FBS), Penicillin-Streptomyces, and GlutaMAX-I Supplement, purchased from GIBCO.
as §1, §2
1) Ba/F3_Del19/T790M/C797S cells were seeded in a 384-well plate at a density of 700 cells/well with 30 μL/well.
as §3, §4, §5
Data analysis was performed using GraphPad Prism 6 software to give the IC50 for compounds.

EGFR WT (wild type EGFR) = EGFR WT (wild type EGFR) (Homo sapiens (Human), UniProt P00533); experiment: In vitro enzymatic TR-FRET (HTRF KinEASE-TK) kinase assay, EGFR WT; assay type: biochemical; settings: kinase activity, TR-FRET; read-out: EGFR (WT) IC50
EGFR WT (wild type EGFR), sequence (P00533 25-1210): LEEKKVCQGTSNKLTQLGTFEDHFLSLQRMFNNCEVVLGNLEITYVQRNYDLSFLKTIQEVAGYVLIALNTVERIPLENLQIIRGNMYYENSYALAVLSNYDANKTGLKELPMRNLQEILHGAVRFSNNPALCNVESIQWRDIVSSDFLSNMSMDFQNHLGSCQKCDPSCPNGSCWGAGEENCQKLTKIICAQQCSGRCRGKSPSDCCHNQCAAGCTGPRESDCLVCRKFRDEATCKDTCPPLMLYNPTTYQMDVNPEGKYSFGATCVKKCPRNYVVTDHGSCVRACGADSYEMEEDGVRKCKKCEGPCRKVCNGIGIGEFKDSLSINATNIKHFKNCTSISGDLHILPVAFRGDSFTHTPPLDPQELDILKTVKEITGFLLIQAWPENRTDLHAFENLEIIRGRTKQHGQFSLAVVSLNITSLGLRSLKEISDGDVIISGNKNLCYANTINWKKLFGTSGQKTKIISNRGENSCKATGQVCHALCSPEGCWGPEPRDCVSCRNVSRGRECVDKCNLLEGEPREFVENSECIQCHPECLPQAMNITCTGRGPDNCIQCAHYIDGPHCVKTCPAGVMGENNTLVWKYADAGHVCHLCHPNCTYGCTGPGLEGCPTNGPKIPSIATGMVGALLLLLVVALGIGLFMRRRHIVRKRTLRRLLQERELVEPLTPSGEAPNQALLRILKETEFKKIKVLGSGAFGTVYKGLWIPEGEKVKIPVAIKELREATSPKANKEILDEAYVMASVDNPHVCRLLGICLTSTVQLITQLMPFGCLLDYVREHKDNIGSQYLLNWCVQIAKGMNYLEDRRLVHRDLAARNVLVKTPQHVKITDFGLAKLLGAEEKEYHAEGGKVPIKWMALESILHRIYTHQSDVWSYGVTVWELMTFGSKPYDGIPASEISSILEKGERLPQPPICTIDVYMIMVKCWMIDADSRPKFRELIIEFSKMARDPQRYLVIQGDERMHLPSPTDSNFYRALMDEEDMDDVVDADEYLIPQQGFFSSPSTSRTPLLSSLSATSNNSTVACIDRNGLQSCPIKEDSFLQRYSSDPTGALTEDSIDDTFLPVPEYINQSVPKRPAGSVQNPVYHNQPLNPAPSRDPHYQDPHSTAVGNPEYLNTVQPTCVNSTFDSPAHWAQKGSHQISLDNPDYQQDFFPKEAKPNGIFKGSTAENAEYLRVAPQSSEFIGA
Experimental: (I) In Vitro Enzymatic Experiment for EGFR WT and EGFR L858R/T790M/C797S
In the assay, the inhibition effect of the compound on the kinase activity of EGFR WT (wild type EGFR) and EGFR L858R/T790M/C797S was tested by adopting a time-resolved fluorescence resonance energy transfer (TR-FRET) method, and half maximal inhibitory concentration IC50 of the compound on the kinase activity of EGFR was obtained.
EGFR recombinase and EGFR L858R/T790M/C797S recombinase, purchased from Signalchem.
HTRF KinEASE-TK kit, purchased from Cisbio.
DTT, MnCl2, and MgCl2, purchased from Sigma.
ATP, purchased from Promega.
as §1
1) 1× working solution was prepared: 5 mM MgCl2; 1 mM DTT; 1 mM MnCl2 and 1× kinase buffer (in kit).
2) […] of gradiently-diluted compound was transferred to a 384-well plate using Echo 550 (Labcyte).
3) 5 μL of 2× EGFR WT or EGFR L858R/T790M/C797S recombinase solution was added to the 384-well plate, and the plate was incubated at room temperature for 10 min.
4) 5 μL of 2× TK-substrate-biotin substrate solution (containing ATP) was added to the 384-well plate, and the plate was incubated at room temperature for 40 min.
5) 5 μL of assay solution containing Sa-XL 665 HTRF and 5 μL of TK-antibody-Cryptatewas were added to the plate, and the plate was incubated at room temperature for 1 h.
6) The fluorescence signal values at 615 nm and 665 nm were measured for each well using an Envision microplate reader (PerkinElmer).
7) The ratio of fluorescence signal values at 665 nm and 615 nm was calculated for each well.
8) Data analysis was performed using GraphPad Prism software to give the IC50 for compounds.

pIC50 (A431 cells (EGFR WT)) | pIC50 [1] | pIC50 [2] | pIC50 (EGFR WT (wild type EGFR)) | SMILES | IC50 (A431 cells (EGFR WT)) [nM] | IC50 [1] [nM] | IC50 [2] [nM]
7.00 to 7.30 | > 8.00 | > 8.00 |  | COc1cc2c(cc1Nc1ncc(Cl)c(Nc3ccc4nccnc4c3P(C)(C)=O)n1)-c1cnn(C)c1CCN2C [Compound 13] |  |  | 
7.00 to 7.30 | > 8.00 | > 8.00 |  | COc1cc2c(cc1Nc1ncc(Br)c(Nc3ccc4nccnc4c3P(C)(C)=O)n1)-c1cnn(C)c1CCN2C1CCOCC1 [Compound 88] |  |  | 
7.30 to 8.00 | > 8.00 | > 8.00 |  | COc1cc2c(cc1Nc1ncc(Br)c(Nc3ccc4nccnc4c3P(C)(C)=O)n1)-c1cnn(C)c1CCN2C1CN(CC2CC2)C1 [Compound 70] |  |  | 
7.30 to 8.00 | > 8.00 | > 8.00 |  | COc1cc2c(cc1Nc1ncc(Br)c(Nc3ccc4nccnc4c3P(C)(C)=O)n1)-c1cnn(C)c1CCN2C1CCN(C)CC1 [Compound 62] |  |  | 
7.30 to 8.00 | > 8.00 | > 8.00 |  | COc1cc2c(cc1Nc1ncc(Br)c(Nc3ccc4nccnc4c3P(C)(C)=O)n1)-c1cnn(C)c1CCN2C1CN(C(C)C)C1 [Compound 63] |  |  | 
7.30 to 8.00 | > 8.00 | > 8.00 |  | COc1cc2c(cc1Nc1ncc(Br)c(Nc3ccc4nccnc4c3P(C)(C)=O)n1)-c1cnn(C)c1CCN2C1CC2(C1)CN(C(C)C)C2 [Compound 90] |  |  | 
6.00 to 7.00 | > 8.00 | > 8.00 |  | COc1cc2c(cc1Nc1ncc(C)c(Nc3ccc4nccnc4c3P(C)(C)=O)n1)-c1cnn(C)c1CCN2C(C)C [Compound 85] |  |  | 
6.00 to 7.00 | > 8.00 | > 8.00 |  | CCN1CCc2c(cnn2C)-c2cc(Nc3ncc(Br)c(Nc4ccc5nccnc5c4NS(C)(=O)=O)n3)c(OC)cc21 [Compound 139] |  |  | 
7.00 to 7.30 | > 8.00 | > 8.00 |  | COc1cc2c(cc1Nc1ncc(Br)c(Nc3ccc4nccnc4c3P(C)(C)=O)n1)-c1cnn(C)c1CCN2C [Compound 1] |  |  | 
7.00 to 7.30 | > 8.00 | > 8.00 |  | COc1cc2c(cc1Nc1ncc(Br)c(Nc3ccc4nccnc4c3P(C)(C)=O)n1)-c1cnn(C)c1CCN2C1CCN(C)CC1F (stereo not shown) [Compound 67] |  |  | 
7.30 to 8.00 | 7.30 to 8.00 | 7.30 to 8.00 |  | COc1cc2c(cc1Nc1ncc(Br)c(Nc3ccc4nccnc4c3P(C)(C)=O)n1)-c1cnn(C)c1CCN2C1CC2(C1)CN(C)C2 [Compound 89] |  |  | 
6.00 to 7.00 | > 8.00 | > 8.00 |  | COc1cc2c(cc1Nc1ncc(Br)c(Nc3ccc4nccnc4c3P(C)(C)=O)n1)-c1cnn(C)c1CCN2C1CC1 [Compound 74] |  |  | 
7.30 to 8.00 | > 8.00 | > 8.00 |  | COc1cc2c(cc1Nc1ncc(Br)c(Nc3ccc4nccnc4c3P(C)(C)=O)n1)-c1cnn(C)c1CCN2C1CCCN(C)C1 (stereo not shown) [Compound 84] |  |  | 

Continued, compound first:

SMILES | pIC50 (A431 cells (EGFR WT)) | pIC50 [1] | pIC50 [2] | pIC50 (EGFR WT (wild type EGFR)) | IC50 (A431 cells (EGFR WT)) [nM] | IC50 [1] [nM] | IC50 [2] [nM]
CCN1CCc2c(cnn2C)-c2cc(Nc3ncc(C)c(Nc4ccccc4P(C)(C)=O)n3)c(OC)cc21 [Compound 19] | 6.00 to 7.00 | 7.30 to 8.00 | > 8.00 | 8.00 to 9.00 |  |  | 
COc1cc2c(cc1Nc1ncc(Br)c(Nc3ccccc3P(C)(C)=O)n1)-c1cnn(C)c1CCN2C1COC1 [Compound 64] | 6.00 to 7.00 | 7.30 to 8.00 | > 8.00 |  |  |  | 
COc1cc2c(cc1Nc1ncc(Br)c(Nc3ccc4nccnc4c3P(C)(C)=S)n1)-c1cnn(C)c1CCN2C1CC2(C1)CN(C)C2 [Compound 93] |  |  |  |  | 10 to 50 | 10 to 50 | < 10
COc1cc2c(cc1Nc1ncc(Br)c(Nc3ccc4nccnc4c3P(C)(C)=S)n1)-c1cnn(C)c1CCN2C1CCN(C)CC1 [Compound 76] |  |  |  |  | 50 to 100 | < 10 | < 10
CNS(=O)(=O)c1ccccc1Nc1nc(Nc2cc3c(cc2OC)N(C(C)C)CCc2c-3cnn2C)ncc1Br [Compound 127] | 6.00 to 7.00 | 6.00 to 7.00 | 6.00 to 7.00 |  |  |  | 
COc1cc2c(cc1Nc1ncc(Br)c(Nc3ccc4nccnc4c3NS(C)(=O)=O)n1)-c1cnn(C)c1CCN2 [Compound 114] |  |  |  |  | 100 to 1000 | < 10 | < 10
COc1cc2c(cc1Nc1ncc(Br)c(Nc3ccc4nccnc4c3NS(C)(=O)=O)n1)-c1cnn(C)c1CCN2CC(C)C [Compound 133] | 6.00 to 7.00 | > 8.00 | > 8.00 |  |  |  | 
COc1cc2c(cc1Nc1ncc(Br)c(Nc3ccccc3N(C(C)C)S(C)(=O)=O)n1)-c1cnn(C)c1CCN2C(C)C [Compound 124] | < 6.00 | 7.30 to 8.00 | 7.30 to 8.00 |  |  |  | 
COc1cc2c(cc1Nc1ncc(Br)c(Nc3ccccc3P(C)(C)=O)n1)-c1cnn(C)c1CCN2C1CN(CCF)C1 [Compound 69] | 6.00 to 7.00 | > 8.00 | > 8.00 |  |  |  | 
COc1cc2c(cc1Nc1ncc(Br)c(Nc3ccccc3P(C)(C)=O)n1)-c1cnn(C)c1CCN2C1CN(C)C1 [Compound 59] | 6.00 to 7.00 | 7.30 to 8.00 | 7.30 to 8.00 |  |  |  | 
COc1cc2c(cc1Nc1ncc(Br)c(Nc3ccccc3P(C)(C)=O)n1)-c1cnn(C)c1CCC2N (stereo not shown) [Compound 50] |  |  |  |  | 100 to 1000 | 10 to 50 | 10 to 50
COc1cc2c(cc1Nc1ncc(Br)c(Nc3ccccc3NS(C)(=O)=O)n1)-c1cnn(C)c1CCN2C [Compound 32] | 6.00 to 7.00 | > 8.00 | > 8.00 |  |  |  | 
